Read-outs that look alike come from different tables or passages of the source.

One experiment deals with ganglionic receptors. The experiment in a line: Determination of Interaction with Ganglia (maximal activation of ganglionic receptors). Particulars: percentage of the maximal activation induced by (S)-(-)-nicotine. In kind it is cell-based. An excerpt:
Typical ganglionic receptors include α3β4 receptor subtypes, (i.e., non-β2 containing receptor subtypes).
Determination of Interaction with Ganglia
The ganglionic tissues employed are representative of those which are believed absent of receptor subtypes containing β2-subunits.

Experiment [1] deals with β2-containing nicotinic acetylcholine receptor subtypes. As to the kind of experiment: Determination of Dopamine Release (synaptosomes). In kind it is cell-based. Particulars: for EC50: read-out: Dopamine Release EC50. An excerpt: Determination of Dopamine Release
Reported EC50 is expressed in nM and Emax represents the amount released relative to nicotine.

In experiment [2] the test system is nicotinic acetylcholine receptor subtypes including β2-subunits. To be noted: reported; cited from earlier work.
Another experiment deals with T1, muscle receptors (Homo sapiens, UniProt P02708+P07510+Q07001).
T1 construct: endogenous in cells
T1 sequence (P02708 21-457): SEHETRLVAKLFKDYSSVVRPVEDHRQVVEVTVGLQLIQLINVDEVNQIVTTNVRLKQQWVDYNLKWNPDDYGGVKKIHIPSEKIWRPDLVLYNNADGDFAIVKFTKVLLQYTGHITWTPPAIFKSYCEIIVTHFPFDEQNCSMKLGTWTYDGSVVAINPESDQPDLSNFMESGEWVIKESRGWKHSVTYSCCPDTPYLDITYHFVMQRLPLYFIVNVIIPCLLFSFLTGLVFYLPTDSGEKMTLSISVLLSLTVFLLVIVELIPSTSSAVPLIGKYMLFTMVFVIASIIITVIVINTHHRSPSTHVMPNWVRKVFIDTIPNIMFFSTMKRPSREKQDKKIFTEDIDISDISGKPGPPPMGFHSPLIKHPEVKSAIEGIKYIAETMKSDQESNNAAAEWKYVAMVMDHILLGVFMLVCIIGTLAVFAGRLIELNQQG
T1 sequence (P07510 23-517): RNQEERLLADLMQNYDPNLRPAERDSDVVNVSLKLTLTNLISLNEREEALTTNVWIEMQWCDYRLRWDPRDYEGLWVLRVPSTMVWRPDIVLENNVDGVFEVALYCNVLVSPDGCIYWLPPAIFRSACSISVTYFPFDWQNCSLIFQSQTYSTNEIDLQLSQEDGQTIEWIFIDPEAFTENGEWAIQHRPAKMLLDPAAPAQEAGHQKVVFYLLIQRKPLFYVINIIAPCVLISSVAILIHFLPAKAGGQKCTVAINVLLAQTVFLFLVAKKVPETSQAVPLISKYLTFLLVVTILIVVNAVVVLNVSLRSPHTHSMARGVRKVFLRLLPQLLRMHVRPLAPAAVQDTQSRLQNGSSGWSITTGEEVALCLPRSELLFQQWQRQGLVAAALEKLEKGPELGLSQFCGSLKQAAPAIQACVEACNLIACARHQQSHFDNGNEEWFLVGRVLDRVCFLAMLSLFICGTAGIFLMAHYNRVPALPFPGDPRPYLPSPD
T1 sequence (Q07001 22-517): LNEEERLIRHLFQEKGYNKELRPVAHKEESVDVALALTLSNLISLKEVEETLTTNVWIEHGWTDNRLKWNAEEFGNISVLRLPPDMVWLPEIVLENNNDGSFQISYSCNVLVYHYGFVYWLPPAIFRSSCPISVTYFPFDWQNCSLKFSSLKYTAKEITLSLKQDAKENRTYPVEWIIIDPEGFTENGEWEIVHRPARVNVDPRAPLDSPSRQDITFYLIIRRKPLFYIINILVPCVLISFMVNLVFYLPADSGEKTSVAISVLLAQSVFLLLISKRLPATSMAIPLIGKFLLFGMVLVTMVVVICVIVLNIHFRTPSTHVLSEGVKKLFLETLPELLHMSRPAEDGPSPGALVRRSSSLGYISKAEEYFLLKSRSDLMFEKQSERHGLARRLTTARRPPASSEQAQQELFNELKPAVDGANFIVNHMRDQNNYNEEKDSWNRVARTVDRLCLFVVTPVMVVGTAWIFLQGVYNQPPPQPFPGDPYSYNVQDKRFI
As to the kind of experiment: cell-based. In kind it is cell-based. Particulars: for Muscle Effect (Emax): percentage of the maximal activation induced by (S)-(-)-nicotine; for Emax: read-out: Muscle Effect (Emax). An excerpt:
Determination of Interaction with Muscle
The muscle tissues employed are representative of those which are believed absent of receptor subtypes containing β2-subunits.

Another experiment has as its target T2, α4β2 receptor subtypes (Rattus norvegicus, UniProt P09483+P12390).
T2 construct: from tissue
The experiment in a line: Determination of Binding to Relevant Receptor Sites. To be noted: calculated from IC50 values using the method of Cheng et al. An excerpt:
Receptor binding constants provide a measure of the ability of the compound to bind to relevant receptor sites of certain cells of the patient.
Determination of Binding to Relevant Receptor Sites

Where [3] appears, read: read-out: Dopamine Release Emax.
Setting [4] is: read-out: Dopamine Release Emax, percentage of release obtained with (S)-(-)-nicotine concentration resulting in maximal effects.

T2 sequence (P09483 31-630): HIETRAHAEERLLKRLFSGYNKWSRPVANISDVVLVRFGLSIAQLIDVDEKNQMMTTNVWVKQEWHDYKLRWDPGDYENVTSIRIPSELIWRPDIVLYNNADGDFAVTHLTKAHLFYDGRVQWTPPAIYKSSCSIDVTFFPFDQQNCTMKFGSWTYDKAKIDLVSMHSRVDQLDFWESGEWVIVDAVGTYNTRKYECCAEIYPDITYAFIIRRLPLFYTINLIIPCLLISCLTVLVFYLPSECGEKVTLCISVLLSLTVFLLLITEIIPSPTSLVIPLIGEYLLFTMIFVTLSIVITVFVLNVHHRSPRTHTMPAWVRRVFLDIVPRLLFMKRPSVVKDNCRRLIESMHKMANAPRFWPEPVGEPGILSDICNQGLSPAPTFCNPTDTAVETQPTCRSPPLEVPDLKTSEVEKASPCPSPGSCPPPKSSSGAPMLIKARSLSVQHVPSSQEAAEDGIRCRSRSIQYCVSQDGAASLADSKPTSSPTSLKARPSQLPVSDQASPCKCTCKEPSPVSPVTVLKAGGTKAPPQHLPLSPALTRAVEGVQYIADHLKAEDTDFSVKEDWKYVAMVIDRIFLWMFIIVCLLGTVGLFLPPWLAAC
T2 sequence (P12390 25-500): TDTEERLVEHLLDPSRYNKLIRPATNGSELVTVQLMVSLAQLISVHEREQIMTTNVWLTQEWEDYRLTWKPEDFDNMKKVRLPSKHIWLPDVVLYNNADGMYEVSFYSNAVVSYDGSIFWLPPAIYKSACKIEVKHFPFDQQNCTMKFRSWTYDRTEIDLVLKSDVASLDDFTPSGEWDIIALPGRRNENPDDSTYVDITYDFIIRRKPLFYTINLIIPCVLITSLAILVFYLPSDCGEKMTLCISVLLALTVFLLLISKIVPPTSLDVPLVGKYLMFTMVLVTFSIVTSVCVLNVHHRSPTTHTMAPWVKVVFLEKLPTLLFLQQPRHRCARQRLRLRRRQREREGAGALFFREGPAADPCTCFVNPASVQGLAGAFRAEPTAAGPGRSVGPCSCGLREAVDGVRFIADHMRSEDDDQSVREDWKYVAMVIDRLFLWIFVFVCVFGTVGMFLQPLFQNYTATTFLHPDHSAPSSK

Consider `CNCC/C=C/c1ccc(C)nc1` [Sample No. 1, (E)-N-methyl-4[3-(6-methylpyridin)yl]-3-buten-1-amine monofumarate], for which the “Ganglion Effect (Emax)” value in the experiment with ganglionic receptors is listed as 4 % nicotine. In experiment [1], the concentration for a half-maximal effect (EC50) – broadly, the concentration that produces a half-maximal response – came out at 10000 nM. Moreover, the Emax in experiment [1] (setting [3]) stood at 115%.
`COc1cncc(/C=C/CCN)c1` [Sample No. 4, (E)-4-[3-(5-methoxypyridin)yl]-3-buten-1-amine monofumarate]: the “Ganglion Effect (Emax)” value in the experiment on ganglionic receptors amounted to 0 % nicotine. Also, in experiment [1], the concentration for a half-maximal effect (EC50) came out at 3800 nM.
`CN1CCC[C@H]1c1cccnc1` [Sample No. C-1, (S)-(-)-nicotine, reference compound]: the “affinity to bind to nicotinic acetylcholine receptor subtypes (in words)” value in experiment [2] was “demonstrated affinity to bind to numerous nicotinic acetylcholine receptor subtypes including β2-subunits”. Further, the “Ganglion Effect (Emax)” value with ganglionic receptors is 100 % nicotine. Also, the Emax in experiment [1] (setting [3]) amounted to 100%.
With `NCC/C=C/c1cccnc1.O=C(O)/C=C/C(=O)O.O=C(O)/C=C/C(=O)O` [Sample No. 18, (E)-4-(3-pyridinyl)-3-buten-1-amine difumarate], the “Ganglion Effect (Emax)” value with ganglionic receptors is listed as 23 % nicotine. Besides, at muscle receptors, the “Muscle Effect (Emax)” value is 15 % nicotine. Also, the 50% effective concentration (EC50) in experiment [1] worked out at 5020 nM. The Emax in experiment [1] (setting [4]) is 81%.
With `CNCC/C=C/c1cncc(-c2ccccc2)c1` [Sample No. 3, (E)-N-Methyl-4-[3-(5-phenylpyridin)yl]-3-buten-1-amine], in the experiment on ganglionic receptors, the “Ganglion Effect (Emax)” value was determined as 0 % nicotine. In addition, on muscle receptors, the “Muscle Effect (Emax)” value is 8 % nicotine. Also, in experiment [1], the half-maximal effective concentration (EC50) was above 100000 nM. The Emax in experiment [1] (setting [4]) was above 160%.
As to `NCC/C=C/c1cncc(Br)c1` [Sample No. 13, (E)-4-[3-(5-Bromopyridin)yl]-3-buten-1-amine Hemifumarate], in the experiment on ganglionic receptors, the “Ganglion Effect (Emax)” value is given as 0 % nicotine. Besides, the Ki (commonly a dissociation constant, usually derived from enzyme kinetics or from competition with a known ligand) at α4β2 receptor subtypes was 707 nM. For the same compound, the Emax was found to be 5% at muscle receptors and 29% in experiment [1] (setting [4]). Also, the EC50 in experiment [1] came out at 49 nM.
For `CCOc1cncc(/C=C/CCNC)c1` [Sample No. 19, (E)-N-Methyl-4-[3-(5-ethoxypyridin)yl]-3-buten-1-amine sesquifumarate], the “Ganglion Effect (Emax)” value in the experiment on ganglionic receptors is recorded as below 15 % nicotine. For the same compound, the “Muscle Effect (Emax)” value at muscle receptors was found to be 3 % nicotine. For the same compound, the concentration for a half-maximal effect (EC50) in experiment [1] (dopamine release) worked out at 276 nM.
In the case of `CNCC/C=C/c1cncc(Oc2ccccc2)c1` [Sample No. 15, (E)-N-Methyl-4-[3-(5-phenoxypyridin)yl]-3-buten-1-amine], the “Ganglion Effect (Emax)” value in the experiment with ganglionic receptors is below 15 % nicotine. The “Muscle Effect (Emax)” value at muscle receptors is recorded as 5 % nicotine. Moreover, the concentration giving a half-maximal response (EC50) in experiment [1] is 114 nM. The Emax in experiment [1] (setting [4]) came out at 14%.
For `CCOc1cncc(/C=C/CCNC)c1` [Sample No. 9, (E)-N-methyl-4-[3-(5-ethoxypyridin)yl]-3-butene-1-amine], in the experiment on ganglionic receptors, the “Ganglion Effect (Emax)” value is listed as 0 % nicotine. Also, the inhibition constant Ki on α4β2 receptor subtypes is 9 nM. The “Muscle Effect (Emax)” value at muscle receptors is listed as 0 % nicotine. Besides, the EC50 in experiment [1] (dopamine release) came to 287 nM. In experiment [1] (percentage of release obtained with (S)-(-)-nicotine concentration resulting in maximal effects), the “Dopamine Release Emax” value is on record as 124%.
In the case of `CNC(C)C/C=C/c1cccnc1` (stereo not shown) [Sample No. 10, (E)-N-methyl-5-(3-pyridinyl)-4-penten-2-amine], in the experiment with ganglionic receptors, the “Ganglion Effect (Emax)” value was determined as 6 % nicotine. Further, on α4β2 receptor subtypes, the Ki was 82 nM. For the same compound, the “Muscle Effect (Emax)” value at muscle receptors worked out at 4 % nicotine. Moreover, the EC50 in experiment [1] came out at 21400 nM. Moreover, the Emax in experiment [1] (setting [4]) is 182%.
For the compound `CNCC/C=C/c1cncnc1` [Sample No. 11, (E)-N-methyl-4-(5-pyrimidinyl)-3-buten-1-amine], the “Ganglion Effect (Emax)” value with ganglionic receptors is given as 0 % nicotine. Moreover, on muscle receptors, the Emax worked out at 12%.
In the case of `CNCC/C=C/c1cncc(N)c1` [Sample No. 5, (E)-N-methyl-4-[3-(5-aminopyridin)yl]-3-buten-1-amine], the “Ganglion Effect (Emax)” value in the experiment with ganglionic receptors was found to be 4 % nicotine. Further, at muscle receptors, the “Muscle Effect (Emax)” value is 4 % nicotine. For the same compound, the EC50 in experiment [1] turned out to be 2000 nM. For the same compound, in experiment [1] (setting [4]), the Emax stood at 85%.
On to `CNCC/C=C/c1cccnc1` [Sample No. 14, (E)-metanicotine monofumarate], for which the EC50 in experiment [1] came out at 1020 nM. Also, the Emax in experiment [1] (setting [3]) stood at 90%.
As for `CNCC/C=C\c1cccnc1` [Sample No. 12, (Z)-metanicotine monofumarate], the EC50 in experiment [1] is 8310 nM. Also, in experiment [1] (setting [3]), the Emax was 96%.
As to `CNCC/C=C/c1cncc(Br)c1` [Sample No. 7, (E-N-methyl-4-[3-5-bromopyridin)yl]-3-buten-1-amine monofumarate], the “Ganglion Effect (Emax)” value in the experiment on ganglionic receptors was 11 % nicotine. The inhibition constant Ki at α4β2 receptor subtypes was 79 nM. The Emax was 8% at muscle receptors and 107% in experiment [1] (setting [4]). Besides, in experiment [1], the concentration giving a half-maximal response (EC50) was found to be 2400 nM.
Take `CNCC/C=C/c1cncc(OC(C)C)c1` [Sample No. 16, (E)-N-Methyl-4-[3-(5-isopropoxypyridin)yl]-3-buten-1-amine]: in the experiment on ganglionic receptors, the “Ganglion Effect (Emax)” value is below 15 % nicotine. Besides, the “Muscle Effect (Emax)” value at muscle receptors is 8 % nicotine. In addition, the EC50 in experiment [1] is 51 nM. For the same compound, the Emax in experiment [1] (setting [4]) was found to be 57%.
With `CNCC/C=C/c1cncc(OCc2ccccc2)c1` [Sample No. 6, (E)-N-Methyl-4-[3-(5-benzyloxypyridin)yl]-3-buten-1-amine], in the experiment on ganglionic receptors, the “Ganglion Effect (Emax)” value is 0 % nicotine. Besides, the “Muscle Effect (Emax)” value at muscle receptors was 12 % nicotine. Further, the half-maximal effective concentration (EC50) in experiment [1] was found to be 4000 nM. Moreover, the Emax in experiment [1] (setting [4]) stood at 33%.
Take `CNCC/C=C/c1cncc(COC)c1` [Sample No. 17, (E)-N-Methyl-4-[3-(5-methoxymethylpyridin)yl]-3-buten-1-amine]: the “Ganglion Effect (Emax)” value in the experiment on ganglionic receptors amounted to 0 % nicotine. In addition, the “Muscle Effect (Emax)” value at muscle receptors was determined as 13 % nicotine. Also, in experiment [1], the EC50 amounted to 16000 nM. The Emax in experiment [1] (setting [4]) came out at 46%.
`CNCC/C=C/c1cncc(OC)c1` [Sample No. 8, (E)-N-methyl-4-[3-(5-methoxypyridin)yl]-3-butene-1-amine]: in the experiment with ganglionic receptors, the “Ganglion Effect (Emax)” value was determined as 0 % nicotine. In addition, the Ki at α4β2 receptor subtypes was 10 nM. Besides, at muscle receptors, the “Muscle Effect (Emax)” value was 0 % nicotine. Moreover, in experiment [1], the EC50 is 191 nM. In addition, in experiment [1] (setting [4]), the Emax was 103%.

Values taken from US5811442A, “Pharmaceutical compositions for the treatment of conditions associated with decreased blood flow” (priority 1997, dated 1998).
